How the values were obtained:
Assay type in all cases: cell-based
[1] = tested on: human small intestine-derived organoid; test: Culture of organoids in absence of Matrigel with LATS kinase inhibitor; cell number by ATP (CellTiter-Glo 3D)
Experimental: (§1) In this experimental example, a human small intestine-derived organoid and human large intestine-derived organoid established in the presence of Matrigel (registered trademark) were cultured in the absence of Matrigel (registered trademark) and in the presence of a LATS kinase inhibitor (final concentration: 10 μM), and their dynamics were observed. The procedure was the same as in Experimental Example 1, except that each organoid was cultured in the absence of Matrigel (registered trademark).
The upper left panel of FIG. 3 is a photograph of a control (Ctrl) human small intestine-derived organoid cultured in the absence of Lats-IN, and the upper center panel of FIG. 3 is a photograph of a human small intestine-derived organoid cultured in the presence of Lats-IN. The scale bar is 100 μm. […] The vertical axis of the graph represents luminescence intensity (relative value) indicating the amount of ATP present. […]
(§2) FIG. 8 presents graphs showing the results of measuring the proliferation of the human small intestine-derived and human large intestine-derived organoids in the absence of Lats-IN (Ctrl), in the presence of Lats-IN (Lats-IN), in the presence of Lats-IN and MYF01-37 (Lats-IN+MYF), and in the presence of MYF01-37 (MYF). The cell proliferation was measured by measuring ATP using a commercially available kit (product name “CellTiter-Glo 3D,” Promega Corporation). The vertical axis of the graph represents luminescence intensity (relative value) indicating the amount of ATP present. […]
(§3) FIG. 26 presents graphs showing the results of measuring cell number in each organoid after 6 days of culture by measuring ATP using a commercially available kit (product name “CellTiter-Glo 3D,” Promega Corporation). The vertical axis of the graph represents luminescence intensity (relative value) indicating the amount of ATP present.

[2] = tested on: human large intestine-derived organoid; test: as above
Experimental: as §1
The lower left panel of FIG. 3 is a photograph of a control (Ctrl) human large intestine-derived organoid cultured in the absence of Lats-IN, and the lower center panel of FIG. 3 is a photograph of a human large intestine-derived organoid cultured in the presence of Lats-IN. The scale bar is 100 μm. The lower right panel of FIG. 3 is a graph showing the results of measuring cell number in the human large intestine-derived organoids cultured in the presence of the control (Ctrl) and Lats-IN. The vertical axis of the graph represents luminescence intensity (relative value) indicating the amount of ATP present. […]
as §2, §3

[3] = tested on: human large intestine-derived organoids; test: Niche factor removal; organoid proliferation by ATP (CellTiter-Glo 3D); settings: absence of Matrigel; Lats-IN 10 μM; some WRENAIF niche factors removed
Experimental: (§4) In this experimental example, the relationship between LATS inhibition and the niche factors essential for organoid culture was examined. FIG. 14 presents graphs showing the results of measuring the proliferation of human small intestine-derived organoids and human large intestine-derived organoids cultured under conditions in which all WRENAIF niche factors were added, and under conditions in which some of these niche factors were removed. As a medium to which all of the WRENAIF niche factors were added, the medium whose composition is shown in Table 1 above was used, and as a medium from which some of these niche factors were removed, a medium from which the corresponding niche factors were removed from the medium whose composition is shown in Table 1 above was used. The cell proliferation was measured by measuring ATP using a commercially available kit (product name “CellTiter-Glo 3D,” Promega Corporation). The vertical axis of the graph represents luminescence intensity (relative value) indicating the amount of ATP present.
(§5) In addition, on the horizontal axis, added niche factors are shown in black, and niche factors not added are shown in light color.

[4] = tested on: human small intestine-derived organoids; test: as above; settings: absence of Matrigel; Lats-IN 10 μM; some WRENAIF niche factors removed
Experimental: as §4, §5

[5] = tested on: human small intestine-derived organoids; test: Niche factor removal; continuous passaging P0 to P16 in absence of Matrigel; settings: Lats-IN 10 μM
Experimental: FIG. 15 is a graph showing the results of measuring the proliferation of human small intestine-derived organoids cultured in the absence of Matrigel (registered trademark), in the absence or presence of Lats-IN (final concentration: 10 μM), under conditions in which all WRENAIF niche factors were added, and under conditions in which some of these niche factors were removed. In FIG. 15, P0 to P16 indicate passage numbers 0 to 16. In addition, the dark colors in the graph indicate successful passaging, while the light colors indicate unsuccessful passaging.

AXIN2 gene = AXIN2 gene expression by quantitative real-time PCR in human large intestine-derived organoids; settings: absence of Matrigel; Lats-IN 10 μM
Experimental: Human small intestine-derived organoids and human large intestine-derived organoids were cultured in the absence or presence of Matrigel (registered trademark) and in the absence or presence of Lats-IN (final concentration: 10 μM), and the expression level of the AXIN2 gene, whose expression is regulated by Wnt, was examined by quantitative real-time PCR.
FIG. 16 presents graphs showing the results of quantitative real-time PCR.

[6] = tested on: phosphorylated ERK (Thr202/Tyr204); test: ERK phosphorylation by Western blotting in human small intestine-derived organoids; settings: absence of Matrigel; Lats-IN 10 μM
Experimental: Next, human small intestine-derived organoids were cultured in the absence or presence of Matrigel (registered trademark) and in the absence or presence of Lats-IN (final concentration: 10 μM), and ERK phosphorylated by EGF signaling was detected by Western blotting.
FIG. 17 presents graphs showing the results of Western blotting. In FIG. 17, “pERK” represents phosphorylated ERK, and “total ERK” represents total ERK (the sum of phosphorylated ERK and non-phosphorylated ERK). In addition, “pYAP” represents phosphorylated YAP, and “total YAP” represents total YAP (the sum of phosphorylated YAP and non-phosphorylated YAP). The antibody against phosphorylated ERK used was phospho-ERK (Thr202/Tyr204) (#4370, Cell Signaling Technology, Inc.). The antibody against total ERK used was total-ERK (#4695, Cell Signaling Technology, Inc.). The antibody against phosphorylated YAP used was phospho-YAP (Ser127) (#4911, Cell Signaling Technology, Inc.). The antibody against total YAP used was total-YAP (#14074, Cell Signaling Technology, Inc.).

[7] = Experimental Example 5, Lats-IN 10 μM alone
[8] = final concentration 10 μM, 7 days of culture, vs control

O=C(N=c1sccn1Cc1ccccc1)c1c[nH]c2ncccc12 [Lats-IN]
cell proliferation (ATP luminescence) [1, 7]: activated
cell proliferation (cell number, ATP luminescence) [1, 8]: significantly activated
cell proliferation (ATP luminescence) [2, 7]: activated
cell proliferation (cell number, ATP luminescence) [2, 8]: significantly activated
cell proliferation without one or two niche factors [3]: cells proliferated
cell proliferation without one or two niche factors [4]: cells proliferated
continuous passaging in medium lacking any of the WRENAIF niche factors [5]: continuous passaging was not possible
expression level of AXIN2 (AXIN2 gene): increased to a level equivalent to that in the presence of Matrigel
ERK phosphorylation [6]: increased to a level equivalent to that in the presence of Matrigel
